The record followed here is patent publication US9957264B2 (Merck Sharp & Dohme Corp., priority 2013, dated 2018).

The structures appear in SMILES notation.

Sequence of JAK1 (recombinant purified GST-tagged catalytic domain) (P23458 875-1153): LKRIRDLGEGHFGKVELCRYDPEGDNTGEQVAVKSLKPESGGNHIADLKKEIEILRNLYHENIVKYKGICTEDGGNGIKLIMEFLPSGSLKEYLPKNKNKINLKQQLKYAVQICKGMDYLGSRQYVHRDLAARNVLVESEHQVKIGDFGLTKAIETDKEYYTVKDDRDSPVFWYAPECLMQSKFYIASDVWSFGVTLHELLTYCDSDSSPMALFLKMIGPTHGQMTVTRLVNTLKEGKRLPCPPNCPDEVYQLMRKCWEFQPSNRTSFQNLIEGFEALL

This test deals with JAK1 (recombinant purified GST-tagged catalytic domain) (Homo sapiens (Human), UniProt P23458). Put plainly: Jak Biochemical HTRF Assay (JAK1). Conditions: [ATP] 31.8 μM. How it is done:
Jak Biochemical HTRF Assay Protocol
The ability of compounds to inhibit the activity of JAK1, JAK2, JAK3, and Tyk2 was measured using a recombinant purified GST-tagged catalytic domain for each enzyme (Invitrogen JAK1 #M4290, JAK2 #M4290, JAK3 #M4290, Tyk2 #M4290) in an HTRF format biochemical assay. The reactions employed a common peptide substrate, LCB-[…]-NH2 (in-house). The basic assay protocol is as follows: First, 250 nL of diluted compounds in DMSO were dispensed into the wells of a dry 384-well Black plate (Greiner #781076) using a Labcyte Echo 555 acoustic dispenser. Subsequent reagent additions employed an Agilent Bravo. […] After equilibration, 2 μL of 10×ATP in 1× assay buffer was added to initiate the kinase reaction and the plates were shaken and then incubated at room temperature for 120 minutes. At the end of the incubation, 20 μL of 2× stop buffer (streptavidin-Dylight 650 (Thermo #84547B/100 mL), Eu-tagged pY20 antibody (Perkin Elmer #AD0067), EDTA, HEPES, and Triton) was added to quench the reaction. Plates were shaken and centrifuged and then incubated 60 minutes at room temperature and then read on a Perkin Elmer Envision (λex=337 nm, λem=665 and 615 nm, TRF delay time=20 μs). HTRF signal=10,000*665 nm reading/615 nm reading. After normalization to untreated controls, the percent inhibition of the HTRF signal at each compound concentration was calculated. The plot of percent inhibition versus the log of compound concentration was fit with a 4-parameter dose response equation to calculate IC50 values.
Final reaction conditions were:
Examples of the instant invention were evaluated in JAK1 and JAK2 in vitro binding assays as described above. The following table tabulates the JAK1 IC50 values and JAK2 IC50 values disclosed for the instant invention.
Consider `CC(C)(C)OC(=O)[C@@H]1CC[C@@](CC#N)(n2nc(Nc3ccc(C(O)(C(C)(C)C)C(F)(F)F)cc3)c3c(=O)[nH]ccc32)CO1` (single isomer, unassigned) [Example 5-167, (2S,5S)-tert-butyl 5-(cyanomethyl)-5-(4-oxo-3-((4-((S or R)-1,1,1-trifluoro-2-hydroxy-3,3-dimethylbutan-2-yl)phenyl)amino)-4,5-dihydro-1H-pyrazolo[4,3-c]pyridin-1-yl)tetrahydro-2H-pyran-2-carboxylate], for which the IC50 was determined as 0.83 nM.

Consider `N#CC[C@]1(n2nc(Nc3ccc4c(c3)CN(C3CCNCC3)S4(=O)=O)c3c(=O)[nH]ccc32)CCOC[C@H]1F` (single isomer, unassigned) [Example 5-271, 2-[(3S,4S or 3R,4R)-4-(3-{[1,1-dioxo-2-(piperidin-4-yl)-3H-1,2-benzothiazol-5-yl]amino}-4-oxo-5H-pyrazolo[4,3-c]pyridin-1-yl)-3-fluorooxan-4-yl]acetonitrile], for which the IC50 was 0.25 nM.

With `CC(C)(C)OC(=O)[C@@H]1CC[C@@](CC#N)(n2nc(Nc3ccc4c(c3)NC(=O)C4(C)C)c3c(=O)[nH]ccc32)CO1` [Example 21-3, (2S,5S)-tert-butyl 5-(cyanomethyl)-5-(3-((3,3-dimethyl-2-oxoindolin-6-yl)amino)-4-oxo-4,5-dihydro-1H-pyrazolo[4,3-c]pyridin-1-yl)tetrahydro-2H-pyran-2-carboxylate], the IC50 was found to be 0.07 nM.

Consider `CN(C)S(=O)(=O)c1ccc(Nc2nn(C3(CC#N)CCN(C(=O)Cc4ccc(C(F)(F)F)cc4)CC3)c3cc[nH]c(=O)c23)cc1` [Example 9-16, 4-({1-[4-(cyanomethyl)-1-{[4-(trifluoromethyl)phenyl]acetyl}piperidin-4-yl]-4-oxo-4,5-dihydro-1H-pyrazolo[4,3-c]pyridin-3-yl}amino)-N,N-dimethylbenzenesulfonamide], for which the IC50 stood at 1.05 nM.

With `CN(C)S(=O)(=O)c1ccc(Nc2nn(C3(CC#N)CCN(C(=O)OC4CCOCC4)CC3)c3cc[nH]c(=O)c23)cc1` [Example 11-7, tetrahydro-2H-pyran-4-yl 4-(cyanomethyl)-4-(3-((4-(N,N-dimethylsulfamoyl)phenyl)amino)-4-oxo-4,5-dihydro-1H-pyrazolo[4,3-c]pyridin-1-yl)piperidine-1-carboxylate], the IC50 was found to be 0.18 nM.

In the case of `CN(C)S(=O)(=O)c1ccc(Nc2nn([C@@]3(CC#N)CCCC[C@H]3F)c3cc[nH]c(=O)c23)cc1` [Example 5-84], the IC50 was under 0.02 nM.

On to `N#CC[C@@]1(n2nc(Nc3ccc4c(c3)CN(C3CCNCC3)S4(=O)=O)c3c(=O)[nH]ccc32)CCOC[C@@H]1F` (single isomer, unassigned) [Example 5-272, 2-((3R,4R or 3S,4S)-4-(3-((1,1-dioxido-2-(piperidin-4-yl)-2,3-dihydrobenzo [d]isothiazol-5-yl)amino)-4-oxo-4,5-dihydro-1H-pyrazolo[4,3-c]pyridin-1-yl)-3-fluorotetrahydro-2H-pyran-4-yl)acetonitrile], for which the half-maximal inhibitory concentration (IC50) turned out to be 0.06 nM.

For `CC(OC(=O)N1CCC(CC#N)(n2nc(Nc3ccc(S(=O)(=O)N(C)C)cc3)c3c(=O)[nH]ccc32)CC1)C(F)(F)F` (stereo not drawn) [Example 11-8, 1,1,1-trifluoropropan-2-yl 4-(cyanomethyl)-4-(3-((4-(N,N-dimethylsulfamoyl)phenyl)amino)-4-oxo-4,5-dihydro-1H-pyrazolo[4,3-c]pyridin-1-yl)piperidine-1-carboxylate], the IC50 amounted to 0.18 nM.

For the molecule `Cc1cc(Nc2nn([C@]3(CC#N)CC[C@@H](C(=O)OC(C)(C)C)OC3)c3cc[nH]c(=O)c23)ccc1C(=O)N1CCC(O)(C(F)(F)F)C1` (single isomer, unassigned) [Example 5-161, (2S,5S)-tert-butyl 5-(cyanomethyl)-5-(3-((4-((S or R)-3-hydroxy-3-(trifluoromethyl)pyrrolidine-1-carbonyl)-3-methylphenyl)amino)-4-oxo-4,5-dihydro-1H-pyrazolo[4,3-c]pyridin-1-yl)tetrahydro-2H-pyran-2-carboxylate], the IC50 was 0.29 nM.

On to `CN(C)S(=O)(=O)c1ccc(Nc2nn(C3(CC#N)CCN(Cc4ccc(C#N)cc4)CC3)c3cc[nH]c(=O)c23)cc1` [Example 8-5], for which the IC50 turned out to be 0.2 nM.

Regarding `CC(C)(C)OC(=O)[C@@H]1CC[C@@](CC#N)(n2nc(Nc3ccc(Cn4ccnn4)cc3)c3c(=O)[nH]ccc32)CO1` [Example 5-96, (2S,5S)-tert-butyl 5-(3-((4-((1H-1,2,3-triazol-1-yl)methyl)phenyl)amino)-4-oxo-4,5-dihydro-1H-pyrazolo[4,3-c]pyridin-1-yl)-5-(cyanomethyl) tetrahydro-2H-pyran-2-carboxylate], the IC50 is 0.07 nM.

On to `CC(C)(C)OC(=O)[C@@H]1CC[C@@](CC#N)(n2nc(Nc3ccc4nc(N5CCOCC5)ccc4c3)c3c(=O)[nH]ccc32)CO1` [Example 5-227, (2S,5S)-tert-butyl 5-(cyanomethyl)-5-(3-((2-morpholinoquinolin-6-yl)amino)-4-oxo-4,5-dihydro-1H-pyrazolo[4,3-c]pyridin-1-yl)tetrahydro-2H-pyran-2-carboxylate], for which the IC50 was 0.15 nM.

Regarding `CC(C)(C)N1Cc2cc(Nc3nn([C@]4(CC#N)CCOC[C@@H]4F)c4cc[nH]c(=O)c34)ccc2C1=O` (single isomer, unassigned) [Example 5-259, 2-((3R,4R or 3S,4S)-4-(3-((2-(tert-butyl)-1-oxoisoindolin-5-yl)amino)-4-oxo-4,5-dihydro-1H-pyrazolo[4,3-c]pyridin-1-yl)-3-fluorotetrahydro-2H-pyran-4-yl)acetonitrile], the IC50 is 0.04 nM.

As for `CN(C)S(=O)(=O)c1ccc(Nc2nn([C@]3(CC#N)CC[C@H](N4CC(F)C4)CC3)c3cc[nH]c(=O)c23)cc1` [Example 18-30, Cis 4-((1-(1-(cyanomethyl)-4-(3-fluoroazetidin-1-yl)cyclohexyl)-4-oxo-4,5-dihydro-1H-pyrazolo[4,3-c]pyridin-3-yl)amino)-N,N-dimethylbenzenesulfonamide], the IC50 came to 2.62 nM.

`CS(=O)(=O)c1ccc(Nc2nn(C3(CC#N)CCN(c4ccc(I)cn4)CC3)c3cc[nH]c(=O)c23)cc1` [Example 15-7, 2-(1-(5-iodopyridin-2-yl)-4-(3-((4-(methylsulfonyl)phenyl)amino)-4-oxo-4,5-dihydro-1H-pyrazolo[4,3-c]pyridin-1-yl)piperidin-4-yl)acetonitrile]: the IC50 came to 0.17 nM.

`C[C@@H]1CN(C(=O)OC(C)(C)C)CC[C@]1(CC#N)n1nc(Nc2ccc(S(C)(=O)=O)cc2)c2c(=O)[nH]ccc21` (racemic) [Example 5-11, tert-butyl (3S,4S and 3R,4R)-4-(cyanomethyl)-3-methyl-4-(3-{[4-(methylsulfonyl)phenyl]amino}-4-oxo-4,5-dihydro-1H-pyrazolo[4,3-c]pyridin-1-yl)piperidine-1-carboxylate]: the IC50 turned out to be 0.2 nM.

As to `C[C@H]1CN(C(=O)OC(C)(C)C)CC[C@]1(CC#N)n1nc(Nc2ccc(S(C)(=O)=O)cc2)c2c(=O)[nH]ccc21` (racemic) [Example 5-10, tert-butyl (3R,4S and 3S,4R)-4-(cyanomethyl)-3-methyl-4-(3-{[4-(methylsulfonyl)phenyl]amino}-4-oxo-4,5-dihydro-1H-pyrazolo[4,3-c]pyridin-1-yl)piperidine-1-carboxylate], the IC50 worked out at 0.23 nM.

As for `CC(C)S(=N)(=O)c1ccc(Nc2nn([C@]3(CC#N)CC[C@@H](C(=O)OC(C)(C)C)OC3)c3cc[nH]c(=O)c23)cc1` (single isomer, unassigned) [Example 5-231, (2S,5S)-tert-butyl 5-(cyanomethyl)-5-(4-oxo-3-((4-(propan-2-yl-(S or R)-sulfonimidoyl)phenyl)amino)-4,5-dihydro-1H-pyrazolo[4,3-c]pyridin-1-yl)tetrahydro-2H-pyran-2-carboxylate], the IC50 is 0.12 nM.

For `CN(C)S(=O)(=O)c1ccc(Nc2nn(C3(CC#N)CCCCC3)c3cc[nH]c(=O)c23)cc1` [Example 5-79, 4-(1-(1-(cyanomethyl)cyclohexyl)-4-oxo-4,5-dihydro-1H-pyrazolo[4,3-c]pyridin-3-ylamino)-N,N-dimethylbenzene-sulfonamide], the IC50 amounted to 0.78 nM.

Consider `CN(C)S(=O)(=O)c1ccc(Nc2nn([C@]3(CC#N)CC[C@@H](N4CC(F)C4)CC3)c3cc[nH]c(=O)c23)cc1` [Example 18-29, Trans 4-((1-(1-(cyanomethyl)-4-(3-fluoroazetidin-1-yl)cyclohexyl)-4-oxo-4,5-dihydro-1H-pyrazolo[4,3-c]pyridin-3-yl)amino)-N,N-dimethylbenzenesulfonamide], for which the IC50 was determined as 0.1 nM.

Turning to `CC(C)NS(=O)(=O)c1ccc(Nc2nn(C3(CC#N)CCCC3)c3cc[nH]c(=O)c23)cc1` [Example 5-130, 4-((1-(1-(cyanomethyl)cyclopentyl)-4-oxo-4,5-dihydro-1H-pyrazolo[4,3-c]pyridin-3-yl)amino)-N-isopropylbenzene-sulfonamide], the 50% inhibitory concentration (IC50) worked out at 0.5 nM.
